Measurements published in PubChem BioAssay AID1745844 (Carcinogenic Potency Database (CPDB), 2022).
“And” between values parts separate entries of the source, which are not always exact repeats. Identical values can stand only once. The source made the active and inactive calls. The rule behind the calls is not given here.

Test system: rodent lifetime carcinogenesis bioassay, tumor incidence TD50
Experiment: carcinogenic potency in animals, long-term in vivo studies, CPDB compilation (AID 1745844)

With `Cc1cc(C)c(N)cc1C` the TD50 (mouse, strain B6C3F1, females, in feed, site: any site (literature study), lesion: several types, types named in the paper, dosed 101 weeks, study length 101 weeks) was 22.4 mg/kg/day, the TD50 (mouse, strain B6C3F1, females, in feed, site: liver, lesion: hepatocellular adenoma + hepatocellular carcinoma + neoplastic nodule, dosed 101 weeks, study length 101 weeks) was 6.13 mg/kg/day and the TD50 (mouse, strain B6C3F1, females, in feed, site: liver, lesion: hepatocellular carcinoma, dosed 101 weeks, study length 101 weeks) was 6.13 mg/kg/day. For the same molecule, the TD50 (mouse, strain B6C3F1, females, in feed, site: lung, lesion: alveolar/bronchiolar adenoma + alveolar/bronchiolar carcinoma, dosed 101 weeks, study length 101 weeks) was 47.6 mg/kg/day, the TD50 (mouse, strain B6C3F1, males, in feed, site: any site (literature study), lesion: several types, types named in the paper, dosed 101 weeks, study length 101 weeks) was 52.5 mg/kg/day (inactive) and the TD50 (mouse, strain B6C3F1, males, in feed, site: liver, lesion: hepatocellular adenoma + hepatocellular carcinoma + neoplastic nodule, dosed 101 weeks, study length 101 weeks) was 14.4 mg/kg/day. For the same molecule, the TD50 (mouse, strain CD-1 HaM/ICR, females, in feed, site: any site (literature study), lesion: several types, types named in the paper, dosed 77 weeks, study length 98 weeks) was 47.2 mg/kg/day, the TD50 (mouse, strain CD-1 HaM/ICR, females, in feed, site: liver, lesion: hepatoma, dosed 77 weeks, study length 98 weeks) was 62.9 mg/kg/day and 62.3 mg/kg/day and the TD50 (mouse, strain CD-1 HaM/ICR, females, in feed, site: liver, lesion: several types, types named in the paper, dosed 77 weeks, study length 98 weeks) was 60.4 mg/kg/day. The TD50 (mouse, strain CD-1 HaM/ICR, females, in feed, site: lung, lesion: several types, types named in the paper, dosed 77 weeks, study length 98 weeks) was 52.8 mg/kg/day and 64.7 mg/kg/day, the TD50 (mouse, strain CD-1 HaM/ICR, males, in feed, site: all sites, lesion: all vascular tumors, dosed 77 weeks, study length 98 weeks) was 260 mg/kg/day and the TD50 (mouse, strain CD-1 HaM/ICR, males, in feed, site: any site (literature study), lesion: several types, types named in the paper, dosed 77 weeks, study length 98 weeks) was 40.3 mg/kg/day. For the same molecule, the TD50 (mouse, strain CD-1 HaM/ICR, males, in feed, site: liver, lesion: hepatoma, dosed 77 weeks, study length 98 weeks) was 46.2 mg/kg/day and 44.2 mg/kg/day, the TD50 (mouse, strain CD-1 HaM/ICR, males, in feed, site: liver, lesion: several types, types named in the paper, dosed 77 weeks, study length 98 weeks) was 35.4 mg/kg/day and the TD50 (mouse, strain CD-1 HaM/ICR, males, in feed, site: lung, lesion: several types, types named in the paper, dosed 77 weeks, study length 98 weeks) was 40 mg/kg/day and 63 mg/kg/day. For the same molecule, the TD50 (rat, strain Charles River CD (Sprague-Dawley), males, in feed, site: any site (literature study), lesion: several types, types named in the paper, dosed 77 weeks, study length 98 weeks) was 37.2 mg/kg/day, the TD50 (rat, strain Charles River CD (Sprague-Dawley), males, in feed, site: liver, lesion: hepatoma, dosed 77 weeks, study length 98 weeks) was 98.5 mg/kg/day and the TD50 (rat, strain Charles River CD (Sprague-Dawley), males, in feed, site: liver, lesion: several types, types named in the paper, dosed 77 weeks, study length 98 weeks) was 47.9 mg/kg/day. For the same molecule, the carcinogen call (rat, strain Charles River CD (Sprague-Dawley), males, in feed, site: subcutaneous tissue, lesion: several types, types named in the paper, dosed 77 weeks, study length 98 weeks) was “positive”, the TD50 (rat, strain Fischer 344, females, in feed, site: any site (literature study), lesion: several types, types named in the paper, dosed 101 weeks, study length 101 weeks) was 396 mg/kg/day and the TD50 (rat, strain Fischer 344, females, in feed, site: liver + lung, lesion: hepatocellular carcinoma + neoplastic nodule + alveolar/bronchiolar adenoma + alveolar/bronchiolar carcinoma, dosed 101 weeks, study length 101 weeks) was 20.4 mg/kg/day. It also gave a TD50 (rat, strain Fischer 344, females, in feed, site: liver, lesion: hepatocellular adenoma + hepatocellular carcinoma + neoplastic nodule, dosed 101 weeks, study length 101 weeks) of 27.2 mg/kg/day, a TD50 (rat, strain Fischer 344, females, in feed, site: liver, lesion: hepatocellular carcinoma + neoplastic nodule, dosed 101 weeks, study length 101 weeks) of 27.2 mg/kg/day and a TD50 (rat, strain Fischer 344, females, in feed, site: liver, lesion: hepatocellular carcinoma, dosed 101 weeks, study length 101 weeks) of 142 mg/kg/day. The TD50 (rat, strain Fischer 344, females, in feed, site: lung, lesion: alveolar/bronchiolar adenoma + alveolar/bronchiolar carcinoma, dosed 101 weeks, study length 101 weeks) was 88.1 mg/kg/day, the TD50 (rat, strain Fischer 344, males, in feed, site: any site (literature study), lesion: several types, types named in the paper, dosed 101 weeks, study length 101 weeks) was 138 mg/kg/day and the TD50 (rat, strain Fischer 344, males, in feed, site: liver, lesion: bile duct carcinoma, dosed 101 weeks, study length 101 weeks) was 268 mg/kg/day. The TD50 (rat, strain Fischer 344, males, in feed, site: liver, lesion: hepatocellular adenoma + hepatocellular carcinoma + neoplastic nodule, dosed 101 weeks, study length 101 weeks) was 43.8 mg/kg/day, the TD50 (rat, strain Fischer 344, males, in feed, site: liver, lesion: hepatocellular carcinoma + neoplastic nodule, dosed 101 weeks, study length 101 weeks) was 43.8 mg/kg/day and the TD50 (rat, strain Fischer 344, males, in feed, site: liver, lesion: hepatocellular carcinoma, dosed 101 weeks, study length 101 weeks) was 71.8 mg/kg/day. The TD50 (rat, strain Fischer 344, males, in feed, site: lung, lesion: alveolar/bronchiolar adenoma + alveolar/bronchiolar carcinoma, dosed 101 weeks, study length 101 weeks) was 180 mg/kg/day.
With `ClCOCCCCCCOCCl` the carcinogen call (mouse, strain Ha/ICR, females, i.p., site: abdomen, lesion: sarcoma, dosed 81 weeks, study length 81 weeks) was “negative (inactive)”.
For `CC1=C(CC(=O)O)c2cc(F)ccc2/C1=C\c1ccc(S(C)(=O)=O)cc1`, the carcinogen call (rat, strain Fischer 344, males, in feed, site: colon, lesion: one or several types, types not named, dosed 53 weeks, study length 53 weeks) was “negative (inactive)”.
For `CC(Oc1c(Cl)cccc1Cl)C1=NCCN1` (stereo not given), the TD50 (rat, strain Long-Evans, females, in feed, site: any site (literature study), lesion: one or several types, types not named, dosed 52 weeks, study length 52 weeks) was 2.3 mg/kg/day (inactive) and the TD50 (rat, strain Long-Evans, males, in feed, site: any site (literature study), lesion: one or several types, types not named, dosed 52 weeks, study length 52 weeks) was 2.3 mg/kg/day (inactive).
In the case of `CN(C)c1ccc(N=Nc2ccccc2)cc1`, the TD50 (monkey, strain Rhesus [Macaca mulatta], both sexes, in feed, site: any site (literature study), lesion: malignant tumor, dosed 258 weeks, study length 1019 weeks) is reported as 17.2 mg/kg/day, the TD50 (monkey, strain Rhesus [Macaca mulatta], both sexes, in feed, site: lung, lesion: alveolar/bronchiolar carcinoma, dosed 258 weeks, study length 1019 weeks) is reported as 4.84 mg/kg/day and the TD50 (rat, strain Wistar albino, females, in feed, site: liver, lesion: bile duct tumor, dosed 33 weeks, study length 56 weeks) is reported as 4.9 mg/kg/day. It also gave a TD50 (rat, strain Wistar albino, females, in feed, site: liver, lesion: hepatoma, dosed 33 weeks, study length 56 weeks) of 3.31 mg/kg/day and a TD50 (rat, strain Wistar albino, females, in feed, site: liver, lesion: liver-cell carcinoma, dosed 33 weeks, study length 56 weeks) of 7.42 mg/kg/day.
